US6797255B1, “Methods and compositions for enhancing magnetic resonance imaging” (Mallinckrodt Inc., priority 1985, dated 2004)

System: rabbits
Assay: Tissue proton T1 and T2 relaxation times 15 min after intravenous administration (dose-response)
Type: in vivo
Details: for T1 relaxation time / T2 relaxation time: 10 mHz RADX; for effect on hepatic and biliary T1 relaxation times: intravenous administration
Protocol: All experiments employing the complex dihydrogen bis(N-[N′-(2,6-dimethylphenyl)carbamoylmethyl]iminodiaceto)manganese (II) trihydrate were conducted following intravenous administration to rabbits. A 10 mM solution of the complex was used in these studies. Rabbits were anesthetized with ketamine/xylazine prior to treatment. The results given were obtained with a 10 mHz RADX proton spin analyzer.
Dose-response experiments were conducted on rabbits following intravenous injection of 0.01-0.10 mmol of the complex/kg. […]

[1] = 0.01-0.10 mmol/kg i.v., rabbits, 15 min
[2] = Bladder, 15 min after 0.01 mmol/kg i.v., rabbits
[3] = Bladder, 15 min after 0.03 mmol/kg i.v., rabbits
[4] = Bladder, 15 min after 0.08 mmol/kg i.v., rabbits
[5] = Bladder, 15 min after 0.10 mmol/kg i.v., 1 rabbit
[6] = Blood, 5 min, 0.01 mmol/kg i.v., rabbits
[7] = Blood, 5 min, 0.03 mmol/kg i.v., rabbits
[8] = Blood, 5 min, 0.08 mmol/kg i.v., rabbits
[9] = Blood, 5 min, 0.10 mmol/kg i.v., 1 rabbit
[10] = Blood, 10 min, 0.01 mmol/kg i.v., rabbits
[11] = Blood, 10 min, 0.03 mmol/kg i.v., rabbits
[12] = Blood, 10 min, 0.08 mmol/kg i.v., rabbits
[13] = Blood, 10 min, 0.10 mmol/kg i.v., 1 rabbit
[14] = Blood, 15 min, 0.01 mmol/kg i.v., rabbits
[15] = Blood, 15 min, 0.03 mmol/kg i.v., rabbits
[16] = Blood, 15 min, 0.08 mmol/kg i.v., rabbits
[17] = Fat, 15 min after 0.01 mmol/kg i.v., rabbits
[18] = Fat, 15 min after 0.03 mmol/kg i.v., rabbits
[19] = Fat, 15 min after 0.08 mmol/kg i.v., rabbits
[20] = Fat, 15 min after 0.10 mmol/kg i.v., 1 rabbit
[21] = Heart, 15 min after 0.01 mmol/kg i.v., rabbits
[22] = Heart, 15 min after 0.03 mmol/kg i.v., rabbits
[23] = Heart, 15 min after 0.08 mmol/kg i.v., rabbits
[24] = Heart, 15 min after 0.10 mmol/kg i.v., 1 rabbit
[25] = Large Intestine, 15 min after 0.01 mmol/kg i.v., rabbits
[26] = Large Intestine, 15 min after 0.03 mmol/kg i.v., rabbits
[27] = Large Intestine, 15 min after 0.08 mmol/kg i.v., rabbits
[28] = Large Intestine, 15 min after 0.10 mmol/kg i.v., 1 rabbit
[29] = Large Intestine, rabbits, 15 min
[30] = Liver, 15 min after 0.01 mmol/kg i.v., rabbits
[31] = Liver, 15 min after 0.03 mmol/kg i.v., rabbits
[32] = Liver, 15 min after 0.08 mmol/kg i.v., rabbits
[33] = Liver, 15 min after 0.10 mmol/kg i.v., 1 rabbit
[34] = Lung, 15 min after 0.01 mmol/kg i.v., rabbits
[35] = Lung, 15 min after 0.03 mmol/kg i.v., rabbits
[36] = Lung, 15 min after 0.08 mmol/kg i.v., rabbits
[37] = Lung, 15 min after 0.10 mmol/kg i.v., 1 rabbit
[38] = Pancreas, 15 min after 0.01 mmol/kg i.v., rabbits
[39] = Pancreas, 15 min after 0.03 mmol/kg i.v., rabbits
[40] = Pancreas, 15 min after 0.08 mmol/kg i.v., rabbits
[41] = Pancreas, 15 min after 0.10 mmol/kg i.v., 1 rabbit
[42] = Renal Cortex, 15 min after 0.01 mmol/kg i.v., rabbits
[43] = Renal Cortex, 15 min after 0.03 mmol/kg i.v., rabbits
[44] = Renal Cortex, 15 min after 0.08 mmol/kg i.v., rabbits
[45] = Renal Cortex, 15 min after 0.10 mmol/kg i.v., 1 rabbit
[46] = Renal Medulla, 15 min after 0.01 mmol/kg i.v., rabbits
[47] = Renal Medulla, 15 min after 0.03 mmol/kg i.v., rabbits
[48] = Renal Medulla, 15 min after 0.08 mmol/kg i.v., rabbits
[49] = Renal Medulla, 15 min after 0.10 mmol/kg i.v., 1 rabbit
[50] = Skeletal Muscle, 15 min after 0.01 mmol/kg i.v., rabbits
[51] = Skeletal Muscle, 15 min after 0.03 mmol/kg i.v., rabbits
[52] = Skeletal Muscle, 15 min after 0.08 mmol/kg i.v., rabbits
[53] = Skeletal Muscle, 15 min after 0.10 mmol/kg i.v., 1 rabbit
[54] = Small Intestine, 15 min after 0.01 mmol/kg i.v., rabbits
[55] = Small Intestine, 15 min after 0.03 mmol/kg i.v., rabbits
[56] = Small Intestine, 15 min after 0.08 mmol/kg i.v., rabbits
[57] = Small Intestine, 15 min after 0.10 mmol/kg i.v., 1 rabbit
[58] = Small Intestine, rabbits, 15 min
[59] = Spleen, 15 min after 0.01 mmol/kg i.v., rabbits
[60] = Spleen, 15 min after 0.03 mmol/kg i.v., rabbits
[61] = Spleen, 15 min after 0.08 mmol/kg i.v., rabbits
[62] = Spleen, 15 min after 0.10 mmol/kg i.v., 1 rabbit
[63] = Stomach, 15 min after 0.01 mmol/kg i.v., rabbits
[64] = Stomach, 15 min after 0.03 mmol/kg i.v., rabbits
[65] = Stomach, 15 min after 0.08 mmol/kg i.v., rabbits
[66] = Stomach, 15 min after 0.10 mmol/kg i.v., 1 rabbit

Structure (SMILES): Cc1cccc(C)c1NC(=O)CN(CC(=O)[O-])CC(=O)O.Cc1cccc(C)c1NC(=O)CN(CC(=O)[O-])CC(=O)O.O.O.O.[Mn+2] [Example 2]
- effect on tissue T1 relaxation times [1]: dose-related decrease
- effect on tissue T2 relaxation times [1]: minimally affected
- T1 relaxation time [2]: 380 ms
- T2 relaxation time [2]: 84 ms
- T1 relaxation time [3]: 312 ms
- T2 relaxation time [3]: 68 ms
- T1 relaxation time [4]: 173 ms
- T2 relaxation time [4]: 60 ms
- T1 relaxation time [5]: 159 ms
- T2 relaxation time [5]: 61 ms
- Approximate ED50, intravenous dose to reduce tissue T1 by 50% (Bladder, rabbits, 15 min): 0.060 mmol/kg
- Approximate ED50, intravenous dose to reduce tissue T2 by 50% (Bladder, rabbits, 15 min): 0.51 mmol/kg
- T1 relaxation time [6]: 554 ms
- T2 relaxation time [6]: 161 ms
- T1 relaxation time [7]: 192 ms
- T2 relaxation time [7]: 110 ms
- T1 relaxation time [8]: 70 ms
- T2 relaxation time [8]: 56 ms
- T1 relaxation time [9]: 64 ms
- T2 relaxation time [9]: 55 ms
- T1 relaxation time [10]: 604 ms
- T2 relaxation time [10]: 165 ms
- T1 relaxation time [11]: 283 ms
- T2 relaxation time [11]: 119 ms
- T1 relaxation time [12]: 96 ms
- T2 relaxation time [12]: 72 ms
- T1 relaxation time [13]: 398 ms
- T2 relaxation time [13]: 179 ms
- T1 relaxation time [14]: 639 ms
- T2 relaxation time [14]: 171 ms
- T1 relaxation time [15]: 368 ms
- T2 relaxation time [15]: 141 ms
- T1 relaxation time [16]: 115 ms
- T2 relaxation time [16]: 82 ms
- T1 relaxation time [17]: 148 ms
- T2 relaxation time [17]: 129 ms
- T1 relaxation time [18]: 136 ms
- T2 relaxation time [18]: 122 ms
- T1 relaxation time [19]: 125 ms
- T2 relaxation time [19]: 122 ms
- T1 relaxation time [20]: 122 ms
- T2 relaxation time [20]: 89 ms
- Approximate ED50, intravenous dose to reduce tissue T1 by 50% (Fat, rabbits, 15 min): 11.94 mmol/kg
- T1 relaxation time [21]: 370 ms
- T2 relaxation time [21]: 64 ms
- T1 relaxation time [22]: 222 ms
- T2 relaxation time [22]: 56 ms
- T1 relaxation time [23]: 104 ms
- T2 relaxation time [23]: 43 ms
- T1 relaxation time [24]: 84 ms
- T2 relaxation time [24]: 39 ms
- Approximate ED50, intravenous dose to reduce tissue T1 by 50% (Heart, rabbits, 15 min): 0.037 mmol/kg
- Approximate ED50, intravenous dose to reduce tissue T2 by 50% (Heart, rabbits, 15 min): 0.38 mmol/kg
- T1 relaxation time [25]: 245 ms
- T2 relaxation time [25]: 65 ms
- T1 relaxation time [26]: 155 ms
- T2 relaxation time [26]: 52 ms
- T1 relaxation time [27]: 123 ms
- T2 relaxation time [27]: 43 ms
- T1 relaxation time [28]: 166 ms
- T2 relaxation time [28]: 53 ms
- Approximate ED50, intravenous dose to reduce tissue T1 by 50% [29]: 0.050 mmol/kg
- Approximate ED50, intravenous dose to reduce tissue T2 by 50% [29]: 0.19 mmol/kg
- T1 relaxation time [30]: 92 ms
- T2 relaxation time [30]: 41 ms
- T1 relaxation time [31]: 49 ms
- T2 relaxation time [31]: 25 ms
- T1 relaxation time [32]: 28 ms
- T2 relaxation time [32]: 18 ms
- T1 relaxation time [33]: 143 ms
- T2 relaxation time [33]: 87 ms
- Approximate ED50, intravenous dose to reduce tissue T2 by 50% (Liver, rabbits, 15 min): 0.04 mmol/kg
- Approximate ED50, intravenous dose to reduce tissue T1 by 50% (Liver, rabbits, 15 min, listed as Dihydrogen Bis(N-[N′-(2,6-dimethylphenyl)carbamoylmethyl]iminodiaceto)manganese(, Trihydrate)): 0.0067 mmol/kg
- Approximate ED50, intravenous dose to reduce tissue T1 by 50% (Liver, rabbits, 15 min, listed as dihydrogen bis(N-[N′-(2,6-dimethylphenyl)carbamoylmethyl]-iminodiaceto)manganese, Trihydrate): less than 0.01 mmol/kg
- T1 relaxation time [34]: 464 ms
- T2 relaxation time [34]: 91 ms
- T1 relaxation time [35]: 352 ms
- T2 relaxation time [35]: 100 ms
- T1 relaxation time [36]: 222 ms
- T2 relaxation time [36]: 67 ms
- T1 relaxation time [37]: 144 ms
- T2 relaxation time [37]: 62 ms
- Approximate ED50, intravenous dose to reduce tissue T1 by 50% (Lung, rabbits, 15 min): 0.075 mmol/kg
- Approximate ED50, intravenous dose to reduce tissue T2 by 50% (Lung, rabbits, 15 min): 0.15 mmol/kg
- T1 relaxation time [38]: 225 ms
- T2 relaxation time [38]: 66 ms
- T1 relaxation time [39]: 104 ms
- T2 relaxation time [39]: 118 ms
- T1 relaxation time [40]: 101 ms
- T2 relaxation time [40]: 70 ms
- T1 relaxation time [41]: 149 ms
- T2 relaxation time [41]: 69 ms
- Approximate ED50, intravenous dose to reduce tissue T1 by 50% (Pancreas, rabbits, 15 min): 0.064 mmol/kg
- T1 relaxation time [42]: 236 ms
- T2 relaxation time [42]: 77 ms
- T1 relaxation time [43]: 164 ms
- T2 relaxation time [43]: 63 ms
- T1 relaxation time [44]: 77 ms
- T2 relaxation time [44]: 42 ms
- T1 relaxation time [45]: 71 ms
- T2 relaxation time [45]: 37 ms
- T1 relaxation time [46]: 435 ms
- T2 relaxation time [46]: 122 ms
- T1 relaxation time [47]: 218 ms
- T2 relaxation time [47]: 95 ms
- T1 relaxation time [48]: 124 ms
- T2 relaxation time [48]: 74 ms
- T1 relaxation time [49]: 35 ms
- T2 relaxation time [49]: 21 ms
- Approximate ED50, intravenous dose to reduce tissue T1 by 50% (Renal cortex, rabbits, 15 min): 0.041 mmol/kg
- Approximate ED50, intravenous dose to reduce tissue T2 by 50% (Renal cortex, rabbits, 15 min): 0.14 mmol/kg
- Approximate ED50, intravenous dose to reduce tissue T1 by 50% (Renal medulla, rabbits, 15 min): 0.030 mmol/kg
- Approximate ED50, intravenous dose to reduce tissue T2 by 50% (Renal medulla, rabbits, 15 min): 0.90 mmol/kg
- T1 relaxation time [50]: 364 ms
- T2 relaxation time [50]: 35 ms
- T1 relaxation time [51]: 304 ms
- T2 relaxation time [51]: 38 ms
- T1 relaxation time [52]: 255 ms
- T2 relaxation time [52]: 39 ms
- T1 relaxation time [53]: 205 ms
- T2 relaxation time [53]: 38 ms
- Approximate ED50, intravenous dose to reduce tissue T1 by 50% (Skeletal muscle, rabbits, 15 min): 0.35 mmol/kg
- T1 relaxation time [54]: 219 ms
- T2 relaxation time [54]: 73 ms
- T1 relaxation time [55]: 150 ms
- T2 relaxation time [55]: 60 ms
- T1 relaxation time [56]: 130 ms
- T2 relaxation time [56]: 50 ms
- T1 relaxation time [57]: 141 ms
- T2 relaxation time [57]: 45 ms
- Approximate ED50, intravenous dose to reduce tissue T1 by 50% [58]: 0.051 mmol/kg
- Approximate ED50, intravenous dose to reduce tissue T2 by 50% [58]: 0.27 mmol/kg
- T1 relaxation time [59]: 346 ms
- T2 relaxation time [59]: 73 ms
- T1 relaxation time [60]: 260 ms
- T2 relaxation time [60]: 70 ms
- T1 relaxation time [61]: 195 ms
- T2 relaxation time [61]: 65 ms
- T1 relaxation time [62]: 202 ms
- T2 relaxation time [62]: 71 ms
- Approximate ED50, intravenous dose to reduce tissue T1 by 50% (Spleen, rabbits, 15 min): 0.085 mmol/kg
- T1 relaxation time [63]: 287 ms
- T2 relaxation time [63]: 56 ms
- T1 relaxation time [64]: 199 ms
- T2 relaxation time [64]: 53 ms
- T1 relaxation time [65]: 122 ms
- T2 relaxation time [65]: 43 ms
- T1 relaxation time [66]: 121 ms
- T2 relaxation time [66]: 47 ms
- Approximate ED50, intravenous dose to reduce tissue T1 by 50% (Stomach, rabbits, 15 min): 0.068 mmol/kg
- Approximate ED50, intravenous dose to reduce tissue T2 by 50% (Stomach, rabbits, 15 min): 0.93 mmol/kg
- effect on hepatic and biliary T1 relaxation times (listed as dihydrogen bis(N-[N′-(2,6-dimethylphenyl)carbamoylmethyl]-iminodiaceto)manganese, Trihydrate): dramatically reduced
- effect on hepatic and biliary T1 relaxation times (listed as dihydrogen bis(N-[N′-(2,6-dimethylphenyl)carbamoylmethyl]iminodiaceto)-manganese, Trihydrate): dramatically reduces hepatic and biliary T1 relaxation times
